Where two headings read alike, the source gives them in different places.
Biological target: T1, Complex I (NADH dehydrogenase) (Homo sapiens, UniProt P49821)
T1 construct: gene NDUFV1
Conditions: optimal decylubiquinone as acceptor, 30 °C, '+' printed for ±

T1 sequence (P19404 33-249): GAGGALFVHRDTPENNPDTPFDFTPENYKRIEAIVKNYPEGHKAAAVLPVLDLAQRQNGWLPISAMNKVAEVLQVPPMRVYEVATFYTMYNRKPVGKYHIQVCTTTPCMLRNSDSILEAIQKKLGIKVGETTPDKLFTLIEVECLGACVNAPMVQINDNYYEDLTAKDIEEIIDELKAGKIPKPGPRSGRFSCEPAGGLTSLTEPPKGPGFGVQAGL
T1 sequence (P28331 24-727, further chain): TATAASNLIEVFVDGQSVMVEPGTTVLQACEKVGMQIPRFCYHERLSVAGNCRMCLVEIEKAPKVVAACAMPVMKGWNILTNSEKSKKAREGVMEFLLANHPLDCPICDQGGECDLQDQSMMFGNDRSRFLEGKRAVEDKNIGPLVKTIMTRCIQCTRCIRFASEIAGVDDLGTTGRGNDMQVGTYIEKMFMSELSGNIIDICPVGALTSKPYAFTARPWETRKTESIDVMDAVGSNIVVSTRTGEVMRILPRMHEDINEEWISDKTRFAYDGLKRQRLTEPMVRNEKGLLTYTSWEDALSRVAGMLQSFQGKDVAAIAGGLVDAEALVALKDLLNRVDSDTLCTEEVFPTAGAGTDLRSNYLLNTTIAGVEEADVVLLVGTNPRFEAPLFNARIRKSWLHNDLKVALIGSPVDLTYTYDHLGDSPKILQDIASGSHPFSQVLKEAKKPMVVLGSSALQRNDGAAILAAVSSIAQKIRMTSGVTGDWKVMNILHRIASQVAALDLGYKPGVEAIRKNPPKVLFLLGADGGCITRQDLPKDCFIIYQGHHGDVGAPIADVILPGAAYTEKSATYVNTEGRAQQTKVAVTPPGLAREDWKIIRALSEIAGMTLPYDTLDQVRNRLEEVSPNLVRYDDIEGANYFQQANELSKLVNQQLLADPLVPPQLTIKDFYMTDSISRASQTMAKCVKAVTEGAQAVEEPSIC
T1 sequence (P49821 21-464): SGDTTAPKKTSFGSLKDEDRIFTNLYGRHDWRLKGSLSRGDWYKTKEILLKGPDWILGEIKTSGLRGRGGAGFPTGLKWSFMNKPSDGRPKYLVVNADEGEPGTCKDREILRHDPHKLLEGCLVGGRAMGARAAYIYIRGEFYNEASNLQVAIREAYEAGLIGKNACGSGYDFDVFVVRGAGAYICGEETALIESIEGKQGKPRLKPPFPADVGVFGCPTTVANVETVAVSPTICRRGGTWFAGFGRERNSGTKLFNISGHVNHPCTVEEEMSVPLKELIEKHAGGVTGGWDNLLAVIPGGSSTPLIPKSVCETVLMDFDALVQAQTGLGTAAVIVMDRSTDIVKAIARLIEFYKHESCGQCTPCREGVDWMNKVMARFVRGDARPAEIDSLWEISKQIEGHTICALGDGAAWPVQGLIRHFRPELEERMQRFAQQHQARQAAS

Structure (SMILES): NC(=O)C1=CN([C@@H]2O[C@H](COP(=O)(O)OP(=O)(O)OC[C@H]3O[C@@H](n4cnc5c(N)ncnc54)[C@H](O)[C@@H]3O)[C@@H](O)[C@H]2O)C=CC1 [NADH]
- KM^NADH (EBV-transformed normal lymphoblastoid HLB cells): 1.8+0.1 µM
- KM^NADH (fibrosarcoma HT1080C cells): 5+2 µM
- KM^NADH (normal prostate epithelial PrEC cells): 4+0.5 µM
- KM^NADH (prostate cancer cells PC-3, DU145 and LNCaP (one common value printed)): 20+2.5 µM
